According to PubChem BioAssay AID2060510 (Molecular Pharmacology Branch, DTP, NCI, 2025):

System: 439559-082-T-J2-PDC spheroids viability
Test: Anticancer human tumor 439559-082-T-J2-PDC patient-derived colon adenocarcinoma cell line growth inhibition [GQUAD]
Settings: for IC50: curve of first compound; for viability, T/C: stronger effect = lower value
In short: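 Tumor cells were grown as complex spheroids with HUVEC endothelial cells and mesenchymal stem cells as stroma. G-quadruplex stabilizers were combined with targeted agents over half-log dilutions from near the clinical Cmax, or from 10 microM.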

[1] = second compound 0.0316 µM, first compound 0.0316 µM
[2] = second compound 0.0316 µM, first compound 0.1 µM
[3] = second compound 0.0316 µM, first compound 0.316 µM
[4] = second compound 0.0316 µM, first compound 1 µM
[5] = second compound 0.0316 µM, first compound 3.16 µM
[6] = second compound 0.0316 µM, first compound 10 µM
[7] = second compound 0.1 µM, first compound 0.0316 µM
[8] = second compound 0.1 µM, first compound 0.1 µM
[9] = second compound 0.1 µM, first compound 0.316 µM
[10] = second compound 0.1 µM, first compound 1 µM
[11] = second compound 0.1 µM, first compound 3.16 µM
[12] = second compound 0.1 µM, first compound 10 µM
[13] = second compound 0.316 µM, first compound 0.0316 µM
[14] = second compound 0.316 µM, first compound 0.1 µM
[15] = second compound 0.316 µM, first compound 0.316 µM
[16] = second compound 0.316 µM, first compound 1 µM
[17] = second compound 0.316 µM, first compound 3.16 µM
[18] = second compound 0.316 µM, first compound 10 µM
[19] = second compound 1 µM, first compound 0.0316 µM
[20] = second compound 1 µM, first compound 0.1 µM
[21] = second compound 1 µM, first compound 0.316 µM
[22] = second compound 1 µM, first compound 1 µM
[23] = second compound 1 µM, first compound 3.16 µM
[24] = second compound 1 µM, first compound 10 µM
[25] = second compound 3.16 µM, first compound 0.0316 µM
[26] = second compound 3.16 µM, first compound 0.1 µM
[27] = second compound 3.16 µM, first compound 0.316 µM
[28] = second compound 3.16 µM, first compound 1 µM
[29] = second compound 3.16 µM, first compound 3.16 µM
[30] = second compound 3.16 µM, first compound 10 µM
[31] = second compound 10 µM, first compound 0.0316 µM
[32] = second compound 10 µM, first compound 0.1 µM
[33] = second compound 10 µM, first compound 0.316 µM
[34] = second compound 10 µM, first compound 1 µM
[35] = second compound 10 µM, first compound 3.16 µM
[36] = second compound 10 µM, first compound 10 µM
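Note: spheroids exposed to the agents for 7 days before readout.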
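Throughout, for viability, T/C: percent of luminescence signal in DMSO vehicle wells taken as 100% viability.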

Work on `COc1ncnc(C2CC2)c1-c1ncc2cnn(Cc3ccc(-c4nc(C(F)(F)F)cn4C(C)C)cc3)c2n1` + CN(C)c1ccc(Nc2c3ccc(NC(=O)CCN4CCCC4)cc3nc3cc(NC(=O)CCN4CCCC4)ccc23)cc1 yielded an IC50 (second compound 0.0316 µM) greater than 10 µM, an IC50 (second compound 0.1 µM) greater than 10 µM and an IC50 (second compound 0.316 µM) greater than 10 µM. It also gave an IC50 (second compound 1 µM) greater than 10 µM, an IC50 (second compound 3.16 µM) greater than 10 µM and an IC50 (second compound 10 µM) greater than 10 µM. For the same compound, the viability, T/C [1] was 93.2%, the viability, T/C [2] was 106% and the viability, T/C [3] was 90.6%. It also gave a viability, T/C [4] of 89.5%, a viability, T/C [5] of 103% and a viability, T/C [6] of 98.5%. It also gave a viability, T/C [7] of 98.7%, a viability, T/C [8] of 93.5% and a viability, T/C [9] of 97.5%. For the same compound, the viability, T/C [10] was 99.1%, the viability, T/C [11] was 94.8% and the viability, T/C [12] was 96.6%. The viability, T/C [13] was 91.6%, the viability, T/C [14] was 96.1% and the viability, T/C [15] was 82.7%. The viability, T/C [16] was 97.7%, the viability, T/C [17] was 96.8% and the viability, T/C [18] was 102%. The viability, T/C [19] was 98.8%, the viability, T/C [20] was 96.3% and the viability, T/C [21] was 98.4%. The viability, T/C [22] was 87.9%, the viability, T/C [23] was 104% and the viability, T/C [24] was 92.7%. It also gave a viability, T/C [25] of 90.4%, a viability, T/C [26] of 98.4% and a viability, T/C [27] of 91.6%. The viability, T/C [28] was 93.5%, the viability, T/C [29] was 96% and the viability, T/C [30] was 99%. For the same compound, the viability, T/C [31] was 89.3%, the viability, T/C [32] was 86.2% and the viability, T/C [33] was 90.6%. It also gave a viability, T/C [34] of 96.6%, a viability, T/C [35] of 105% and a viability, T/C [36] of 92.6%.

Compound `CC(C)n1c(=O)n(C)c2cnc3cc(F)c(-c4ccc(OCCCN5CCCCC5)nc4)cc3c21` + Cc1[nH]c2ccc(F)cc2c1-c1nc2c3cccnc3c3ncccc3c2[nH]1 has an IC50 (second compound 0.0316 µM) greater than 10 µM, an IC50 (second compound 0.1 µM) greater than 10 µM and an IC50 (second compound 0.316 µM) greater than 10 µM. It also gave an IC50 (second compound 1 µM) greater than 10 µM, an IC50 (second compound 3.16 µM) greater than 10 µM and an IC50 (second compound 10 µM) greater than 10 µM. The viability, T/C [1] was 112%, the viability, T/C [2] was 94.7% and the viability, T/C [3] was 126%. For the same compound, the viability, T/C [4] was 125%, the viability, T/C [5] was 130% and the viability, T/C [6] was 102%. It also gave a viability, T/C [7] of 116%, a viability, T/C [8] of 110% and a viability, T/C [9] of 117%. The viability, T/C [10] was 123%, the viability, T/C [11] was 139% and the viability, T/C [12] was 100%. The viability, T/C [13] was 98.7%, the viability, T/C [14] was 104% and the viability, T/C [15] was 127%. For the same compound, the viability, T/C [16] was 122%, the viability, T/C [17] was 128% and the viability, T/C [18] was 96.4%. For the same compound, the viability, T/C [19] was 106%, the viability, T/C [20] was 103% and the viability, T/C [21] was 118%. It also gave a viability, T/C [22] of 125%, a viability, T/C [23] of 113% and a viability, T/C [24] of 113%. It also gave a viability, T/C [25] of 90%, a viability, T/C [26] of 88% and a viability, T/C [27] of 107%. For the same compound, the viability, T/C [28] was 102%, the viability, T/C [29] was 89.9% and the viability, T/C [30] was 66.7%. For the same compound, the viability, T/C [31] was 85.1%, the viability, T/C [32] was 83.4% and the viability, T/C [33] was 98.8%. The viability, T/C [34] was 98.8%, the viability, T/C [35] was 99.6% and the viability, T/C [36] was 84.8%.

For `CC1COCCN1c1cc(-c2ccnn2C)c2ccnc(-c3ccn[nH]3)c2n1` (stereo not given) + Cc1[nH]c2ccc(F)cc2c1-c1nc2c3cccnc3c3ncccc3c2[nH]1, the IC50 (second compound 0.0316 µM) was 0.427 µM, the IC50 (second compound 0.1 µM) was 0.269 µM and the IC50 (second compound 0.316 µM) was 0.295 µM. The IC50 (second compound 1 µM) was 0.276 µM, the IC50 (second compound 3.16 µM) was 0.227 µM and the IC50 (second compound 10 µM) was 0.209 µM. It also gave a viability, T/C [1] of 106%, a viability, T/C [2] of 80.6% and a viability, T/C [3] of 53.5%. It also gave a viability, T/C [4] of 38.8%, a viability, T/C [5] of 35.8% and a viability, T/C [6] of 30.7%. The viability, T/C [7] was 103%, the viability, T/C [8] was 77.2% and the viability, T/C [9] was 45.7%. For the same compound, the viability, T/C [10] was 36.9%, the viability, T/C [11] was 40.8% and the viability, T/C [12] was 34.5%. For the same compound, the viability, T/C [13] was 101%, the viability, T/C [14] was 87.4% and the viability, T/C [15] was 47.8%. The viability, T/C [16] was 34%, the viability, T/C [17] was 41.6% and the viability, T/C [18] was 30.2%. The viability, T/C [19] was 91.6%, the viability, T/C [20] was 82% and the viability, T/C [21] was 46%. For the same compound, the viability, T/C [22] was 31.9%, the viability, T/C [23] was 39.6% and the viability, T/C [24] was 29.8%. For the same compound, the viability, T/C [25] was 88.2%, the viability, T/C [26] was 73.5% and the viability, T/C [27] was 40.6%. For the same compound, the viability, T/C [28] was 30.3%, the viability, T/C [29] was 34.1% and the viability, T/C [30] was 27.4%. For the same compound, the viability, T/C [31] was 76.1%, the viability, T/C [32] was 73.5% and the viability, T/C [33] was 36.8%. It also gave a viability, T/C [34] of 31.6%, a viability, T/C [35] of 32.8% and a viability, T/C [36] of 29.6%.

In the case of `CC1COCCN1c1cc(C2(S(C)(=N)=O)CC2)nc(-c2ccnc3[nH]ccc23)n1` (stereo not given) + Cc1[nH]c2ccc(F)cc2c1-c1nc2c3cccnc3c3ncccc3c2[nH]1, the IC50 (second compound 0.0316 µM) is reported as greater than 10 µM, the IC50 (second compound 0.1 µM) is reported as greater than 10 µM and the IC50 (second compound 0.316 µM) is reported as greater than 10 µM. The IC50 (second compound 1 µM) was greater than 10 µM, the IC50 (second compound 3.16 µM) was greater than 10 µM and the IC50 (second compound 10 µM) was greater than 10 µM. It also gave a viability, T/C [1] of 100%, a viability, T/C [2] of 92.5% and a viability, T/C [3] of 103%. For the same compound, the viability, T/C [4] was 106%, the viability, T/C [5] was 96.7% and the viability, T/C [6] was 76.8%. For the same compound, the viability, T/C [7] was 109%, the viability, T/C [8] was 104% and the viability, T/C [9] was 90.9%. For the same compound, the viability, T/C [10] was 102%, the viability, T/C [11] was 93.9% and the viability, T/C [12] was 75.8%. For the same compound, the viability, T/C [13] was 88.1%, the viability, T/C [14] was 105% and the viability, T/C [15] was 99.6%. For the same compound, the viability, T/C [16] was 104%, the viability, T/C [17] was 98.5% and the viability, T/C [18] was 71.3%. The viability, T/C [19] was 99.9%, the viability, T/C [20] was 86.8% and the viability, T/C [21] was 100%. It also gave a viability, T/C [22] of 90.5%, a viability, T/C [23] of 91.8% and a viability, T/C [24] of 68.5%. The viability, T/C [25] was 87.5%, the viability, T/C [26] was 94.2% and the viability, T/C [27] was 80.8%. The viability, T/C [28] was 77.4%, the viability, T/C [29] was 83.5% and the viability, T/C [30] was 63.1%. It also gave a viability, T/C [31] of 88%, a viability, T/C [32] of 87.8% and a viability, T/C [33] of 80.8%. It also gave a viability, T/C [34] of 74.4%, a viability, T/C [35] of 80.6% and a viability, T/C [36] of 64.3%.

`COc1ccc([C@@H](O)c2cc(-c3ncnc4cc(N5CCOCC5)ccc34)c(F)cc2Cl)nn1` + Cc1[nH]c2ccc(F)cc2c1-c1nc2c3cccnc3c3ncccc3c2[nH]1 was tested, and the IC50 (second compound 0.0316 µM) was greater than 10 µM, the IC50 (second compound 0.1 µM) was greater than 10 µM and the IC50 (second compound 0.316 µM) was greater than 10 µM. For the same compound, the IC50 (second compound 1 µM) was greater than 10 µM, the IC50 (second compound 3.16 µM) was greater than 10 µM and the IC50 (second compound 10 µM) was greater than 10 µM. The viability, T/C [1] was 97.1%, the viability, T/C [2] was 98% and the viability, T/C [3] was 87.8%. For the same compound, the viability, T/C [4] was 98.1%, the viability, T/C [5] was 85% and the viability, T/C [6] was 95.5%. The viability, T/C [7] was 111%, the viability, T/C [8] was 99.5% and the viability, T/C [9] was 89%. The viability, T/C [10] was 93.3%, the viability, T/C [11] was 98% and the viability, T/C [12] was 88.5%. The viability, T/C [13] was 106%, the viability, T/C [14] was 93.2% and the viability, T/C [15] was 92.1%. For the same compound, the viability, T/C [16] was 86.9%, the viability, T/C [17] was 83.7% and the viability, T/C [18] was 75.9%. It also gave a viability, T/C [19] of 99.9%, a viability, T/C [20] of 101% and a viability, T/C [21] of 90.5%. It also gave a viability, T/C [22] of 92.6%, a viability, T/C [23] of 85.8% and a viability, T/C [24] of 75.6%. The viability, T/C [25] was 73.1%, the viability, T/C [26] was 85.1% and the viability, T/C [27] was 83.2%. The viability, T/C [28] was 69%, the viability, T/C [29] was 69.3% and the viability, T/C [30] was 77.4%. The viability, T/C [31] was 84.9%, the viability, T/C [32] was 93.9% and the viability, T/C [33] was 83.7%. It also gave a viability, T/C [34] of 82%, a viability, T/C [35] of 74.4% and a viability, T/C [36] of 80.8%.
